Measurements as given in patent US20220265817A1, “THERAPEUTIC COMPOSITIONS AND METHODS FOR TREATING HEPATITIS B” (priority 2017, published 2022).
“And” between values parts separate entries of the source, which are not always exact repeats. Equal entries are not always repeated. Where two headings read alike, the source gives them in different places.

How the values were obtained:
Test in all cases: microbe, parasite or virus in culture
Assay type in all cases: cell-based
[1] = system: D type HBV in primary human hepatocytes (HBeAg)
Method: (§1) The mouse liver perfusion was applied to isolate PHHs. The isolated hepatocytes were further purified by Percoll. The cells were resuspended with culture media and seeded into the 96-well plates (6×10^4 cell/well) or 48-well plates (1.2×10^5 cell/well). The PHHs were infected with a D type HBV one day post seeding (day 1).
(§2) On day 2, the test compounds were diluted and added into the cell culture plates. The culture media containing the compounds were refreshed every other day. The cell culture supernatants were collected on day 8 for the HBV DNA and antigen determinations.
(§3) The compounds were tested at 7 concentrations, 3-fold dilution, in triplicate.
(§4) Two compounds were tested at 5×5 matrix, in triplicate plates.
(§5) HBsAg/HBeAg in the culture supernatants harvested on days 8 were measured by the HBsAg/HBeAg ELISA kit (Autobio) according to the manual. The samples were diluted with PBS to get the signal in the range of the standard curve. The inhibition rates were calculated with the formula below. The combination effect was analyzed by the MacSynergy software.
% Inh. HBeAg=[1-HBeAg quantity of sample/HBV quantity of DMSO control]×100.

[2] = system: D type HBV in primary human hepatocytes (HBsAg)
Method: as §1, §2, §3, §4, §5
% Inh. HBsAg=[1-HBsAg quantity of sample/HBV quantity of DMSO control]×100.

[3] = system: D type HBV in primary human hepatocytes; conditions: for EC50: PHH
Method: as §1, §2, §3, §4
DNA in the culture supernatants harvested on days 8 were isolated with QIAamp 96 DNA Blood Kit (Qiagen-51161). For each sample, 100 μl of the culture supernatants was used to extract DNA. The DNA was eluted with 100 μl, 150 μl or 180 μl of AE. HBV DNA in the culture supernatants was quantified by qPCR. The combination effect was analyzed by the MacSynergy software. The primers are described below.

[4] = Hepatitis B virus, Hepatocyte, 432 h, read-out: Inhibitor B EC50
[5] = Hepatitis B virus, Hepatocyte, 456 h, read-out: Inhibitor A EC50

For `CNC(=O)N[C@H]1CCOc2c(C(=O)Nc3ccc(F)c(F)c3)ccc(F)c21` [Compound 23], the inhibition at 0.02469 µM ([1]; Hepatitis B virus, Hepatocyte, read-out: AVERAGE % INHIBITION HBeAg, compound 23 24.69 nM alone) was -8.82%, the inhibition at 0.07407 µM ([1]; Hepatitis B virus, Hepatocyte, read-out: AVERAGE % INHIBITION HBeAg, compound 23 74.07 nM alone) was -6.36% and the inhibition at 0.22222 µM ([1]; Hepatitis B virus, Hepatocyte, read-out: AVERAGE % INHIBITION HBeAg, compound 23 222.22 nM alone) was -12.7%. It also gave an inhibition at 0.66667 µM ([1]; Hepatitis B virus, Hepatocyte, read-out: AVERAGE % INHIBITION HBeAg, compound 23 666.67 nM alone) of -7.94%, an inhibition at 2 µM ([1]; Hepatitis B virus, Hepatocyte, read-out: AVERAGE % INHIBITION HBeAg, compound 23 2000.00 nM alone) of -1.09% and an EC50 ([1]; Hepatitis B virus, Hepatocyte, HBeAg, PHH, determined in an earlier separate experiment, read-out: Inhibitor B EC50) of 4530 nM. For the same compound, the inhibition at 0.02469 µM ([2]; Hepatitis B virus, Hepatocyte, read-out: AVERAGE % INHIBITION HBsAg, compound 23 24.69 nM alone (TDF study)) was -13.9%, the inhibition at 0.024691 µM ([2]; Hepatitis B virus, Hepatocyte, read-out: AVERAGE % INHIBITION HBsAg, compound 23 24.691 nM alone (TAF study)) was 0.77% and the inhibition at 0.07407 µM ([2]; Hepatitis B virus, Hepatocyte, read-out: AVERAGE % INHIBITION HBsAg, compound 23 74.07 nM alone (TDF study)) was -10.9%. For the same compound, the inhibition at 0.074074 µM ([2]; Hepatitis B virus, Hepatocyte, read-out: AVERAGE % INHIBITION HBsAg, compound 23 74.074 nM alone (TAF study)) was -5.27%, the inhibition at 0.22222 µM ([2]; Hepatitis B virus, Hepatocyte, read-out: AVERAGE % INHIBITION HBsAg, compound 23 222.22 nM alone (TAF study)) was 4.83% and the inhibition at 0.22222 µM ([2]; Hepatitis B virus, Hepatocyte, read-out: AVERAGE % INHIBITION HBsAg, compound 23 222.22 nM alone (TDF study)) was -11.6%. For the same compound, the inhibition at 0.66667 µM ([2]; Hepatitis B virus, Hepatocyte, read-out: AVERAGE % INHIBITION HBsAg, compound 23 666.67 nM alone (TAF study)) was 1.95%, the inhibition at 0.66667 µM ([2]; Hepatitis B virus, Hepatocyte, read-out: AVERAGE % INHIBITION HBsAg, compound 23 666.67 nM alone (TDF study)) was -4.45% and the inhibition at 2 µM ([2]; Hepatitis B virus, Hepatocyte, read-out: AVERAGE % INHIBITION HBsAg, compound 23 2000.00 nM alone (TDF study)) was 0.48%. It also gave an EC50 ([2]; Hepatitis B virus, Hepatocyte, read-out: Inhibitor B EC50) of 4360 nM, an inhibition at 0.02469 µM ([3]; Hepatitis B virus, Hepatocyte, read-out: AVERAGE % […] DNA, compound 23 24.69 nM alone (TDF study)) of -15.3% and an inhibition at 0.024691 µM ([3]; Hepatitis B virus, Hepatocyte, read-out: AVERAGE % […] DNA, compound 23 24.691 nM alone (TAF study)) of -4.57%. For the same compound, the inhibition at 0.07407 µM ([3]; Hepatitis B virus, Hepatocyte, read-out: AVERAGE % […] DNA, compound 23 74.07 nM alone (TDF study)) was -36.6%, the inhibition at 0.074074 µM ([3]; Hepatitis B virus, Hepatocyte, read-out: AVERAGE % […] DNA, compound 23 74.074 nM alone (TAF study)) was -2.49% and the inhibition at 0.22222 µM ([3]; Hepatitis B virus, Hepatocyte, read-out: AVERAGE % […] DNA, compound 23 222.22 nM alone (TAF study)) was 11.1%. The inhibition at 0.22222 µM ([3]; Hepatitis B virus, Hepatocyte, read-out: AVERAGE % […] DNA, compound 23 222.22 nM alone (TDF study)) was 0.78%, the inhibition at 0.66667 µM ([3]; Hepatitis B virus, Hepatocyte, read-out: AVERAGE % […] DNA, compound 23 666.67 nM alone (TAF study)) was 30.5% and the inhibition at 0.66667 µM ([3]; Hepatitis B virus, Hepatocyte, read-out: AVERAGE % […] DNA, compound 23 666.67 nM alone (TDF study)) was 30.4%. For the same compound, the inhibition at 2 µM ([3]; Hepatitis B virus, Hepatocyte, read-out: AVERAGE % […] DNA, compound 23 2000 nM alone (TAF study)) was 58.1%, the inhibition at 2 µM ([3]; Hepatitis B virus, Hepatocyte, read-out: AVERAGE % […] DNA, compound 23 2000.00 nM alone (TDF study)) was 70% and the EC50 ([3]; Hepatitis B virus, Hepatocyte, HBV DNA, determined in an earlier separate experiment, read-out: Inhibitor B EC50) was 230 nM.
In the case of `COCCCOc1cc2c(cc1OC)-c1cc(=O)c(C(=O)O)cn1C(C(C)C)C2` (centres unmarked) [Compound 25], the “AVERAGE % INHIBITION HBeAg” value ([1]; COMPOUND 25 0.12 nM alone) is reported as 4.8%, the “AVERAGE % INHIBITION HBeAg” value ([1]; COMPOUND 25 0.37 nM alone) is reported as −0.51% and 2.9% and the “AVERAGE % INHIBITION HBeAg” value ([1]; COMPOUND 25 3.33 nM alone) is reported as 13.94%. The “AVERAGE % INHIBITION HBeAg” value ([1]; COMPOUND 25 10.00 nM alone) was 28.42%, the EC50 [1, 4] was 5.75 nM and the EC50 [1, 5] was 5.75 nM. For the same compound, the inhibition at 0.00012 µM ([1]; Hepatitis B virus, Hepatocyte, read-out: AVERAGE % INHIBITION HBeAg, COMPOUND 25 0.12 nM alone) was 5.33%, the inhibition at 0.00333 µM ([1]; Hepatitis B virus, Hepatocyte, read-out: AVERAGE % INHIBITION HBeAg, COMPOUND 25 3.33 nM alone) was 8.74% and the inhibition at 0.01 µM ([1]; Hepatitis B virus, Hepatocyte, read-out: AVERAGE % INHIBITION HBeAg, COMPOUND 25 10.00 nM alone) was 33.2%. It also gave an inhibition at 0.12 µM ([1]; Hepatitis B virus, Hepatocyte, read-out: AVERAGE % INHIBITION HBeAg, COMPOUND 25 0.12 μM alone) of -11.2%, an inhibition at 0.37 µM ([1]; Hepatitis B virus, Hepatocyte, read-out: AVERAGE % INHIBITION HBeAg, COMPOUND 25 0.37 μM alone) of -13.8% and an inhibition at 3.33 µM ([1]; Hepatitis B virus, Hepatocyte, read-out: AVERAGE % INHIBITION HBeAg, COMPOUND 25 3.33 μM alone) of -7.31%. For the same compound, the inhibition at 10 µM ([1]; Hepatitis B virus, Hepatocyte, read-out: AVERAGE % INHIBITION HBeAg, COMPOUND 25 10.00 μM alone) was 22%, the EC50 ([1]; Hepatitis B virus, Hepatocyte, read-out: Inhibitor A EC50 HBeAg) was 5.75 nM and the “AVERAGE % INHIBITION (HBsAg)” value ([2]; COMPOUND 25 0.12 nM alone) was 3.68% and 9.32%. For the same compound, the “AVERAGE % INHIBITION (HBsAg)” value ([2]; COMPOUND 25 3.33 nM alone) was 20.81%, the “AVERAGE % INHIBITION (HBsAg)” value ([2]; COMPOUND 25 10.00 nM alone) was 42.95% and the EC50 [2, 4] was 4.5 nM. For the same compound, the EC50 [2, 5] was 4.5 nM, the inhibition at 0.12 µM ([2]; Hepatitis B virus, Hepatocyte, COMPOUND 25 0.12 μM alone) was -5.64% and the inhibition at 0.37 µM ([2]; Hepatitis B virus, Hepatocyte, COMPOUND 25 0.37 μM alone) was -7.52%. For the same compound, the inhibition at 0.00333 µM ([2]; Hepatitis B virus, Hepatocyte, read-out: AVERAGE % INHIBITION HBsAg, COMPOUND 25 3.33 nM alone) was 13.1%, the inhibition at 0.01 µM ([2]; Hepatitis B virus, Hepatocyte, read-out: AVERAGE % INHIBITION HBsAg, COMPOUND 25 10.00 nM alone) was 33% and the inhibition at 3.33 µM ([2]; Hepatitis B virus, Hepatocyte, read-out: AVERAGE % INHIBITION HBsAg, COMPOUND 25 3.33 μM alone) was 8.81%. The inhibition at 10 µM ([2]; Hepatitis B virus, Hepatocyte, read-out: AVERAGE % INHIBITION HBsAg, COMPOUND 25 10.00 μM alone) was 42.5%, the EC50 ([2]; Hepatitis B virus, Hepatocyte, read-out: Inhibitor A EC50 HBsAg) was 4.5 nM and the “AVERAGE % INHIBITION HBV DNA” value ([3]; COMPOUND 25 0.37 nM alone) was −51.8% and −46.48%. The “AVERAGE % INHIBITION HBV DNA” value ([3]; COMPOUND 25 3.33 nM alone) was 16.41%, the “AVERAGE % INHIBITION HBV DNA” value ([3]; COMPOUND 25 10.00 nM alone) was 37.39% and the EC50 ([3]; Hepatitis B virus, Hepatocyte, 432 h, HBV DNA endpoint, determined in an earlier separate experiment (Table 18d), read-out: Inhibitor B EC50) was 0.654 nM. For the same compound, the EC50 ([3]; Hepatitis B virus, Hepatocyte, 456 h, HBV DNA endpoint, determined in an earlier separate experiment (Table 19d), read-out: Inhibitor A EC50) was 0.654 nM, the inhibition at 0.00333 µM ([3]; Hepatitis B virus, Hepatocyte, read-out: AVERAGE % […] DNA, COMPOUND 25 3.33 nM alone, read-out: AVERAGE % INHIBITION HBV DNA) was 15.2% and the inhibition at 0.01 µM ([3]; Hepatitis B virus, Hepatocyte, read-out: AVERAGE % […] DNA, COMPOUND 25 10.00 nM alone, read-out: AVERAGE % INHIBITION HBV DNA) was 28%. It also gave an inhibition at 0.12 µM ([3]; Hepatitis B virus, Hepatocyte, read-out: AVERAGE % […] DNA, compound 25 0.12 μM alone) of -14.4%, an inhibition at 0.37 µM ([3]; Hepatitis B virus, Hepatocyte, read-out: AVERAGE % […] DNA, compound 25 0.37 μM alone) of -9.87% and an inhibition at 3.33 µM ([3]; Hepatitis B virus, Hepatocyte, read-out: AVERAGE % […] DNA, compound 25 3.33 μM alone) of 32.6%. The inhibition at 10 µM ([3]; Hepatitis B virus, Hepatocyte, read-out: AVERAGE % […] DNA, compound 25 10.00 μM alone) was 53.8% and the EC50 ([3]; Hepatitis B virus, Hepatocyte, determined in an earlier separate experiment, read-out: Inhibitor A EC50 HBV DNA) was 0.653 nM.
